Measured values: patent US12103916B2, “Antifungal compounds” (University of Kentucky Research Foundation, priority 2016, dated 2024)
≈ marks a conversion by molar mass, not a printed value. Read-outs that look alike come from different tables or passages of the source. Blank lines part the entries; values can stand above or below the compound they belong to.

Columns and labels:
[1] = test system: Candida albicans ATCC 10231; assay: MIC determination, strain A; assay type: cell-based; details: for MIC: Candida albicans, ATCC10231
Text: (§1) For all of our azole derivatives we report their MIC-0 values against C. albicans ATCC 10231 (strain A) and all Aspergillus strains (K-M), which correspond to complete growth inhibition of these fungi. […] The MIC values presented for these five control drugs were either tested herein or correspond to our previously published data^5, 16 as indicated in Table 1.
(§2) Antifungal activity in the absence or presence of serum.
(§3) It is important to note that all comparisons to follow will be done by using the MIC values reported in μg/mL as the data were collected that way. However, we also present in parentheses in Table 2 the corresponding values in micromolar.
(§4) In this manuscript, we performed all activity comparisons by using the MIC values reported in μg/mL (Note: the corresponding MIC values are also provided in μM into parentheses in Tables 1, 2, S1, and S2).

C. albicans ATCC 64124 = assay: MIC determination, strain B; assay type: cell-based, Candida albicans; details: strain B, AmB; for MIC: Candida albicans, ATCC64124
Experimental: (§5) The antifungal activity of our new azole compounds 1-9 and 24-41 was first evaluated against a panel of seven Candida albicans strains (A-G), three non-albicans Candida strains […], and three Aspergillus strains (K-M) in a concentration range of 0.03-31.2 μg/mL (Table 1). […] For all of our azole derivatives we report their MIC-0 values against C. albicans ATCC 10231 (strain A) and all Aspergillus strains (K-M), which correspond to complete growth inhibition of these fungi. […] The commercially available antifungals AmB, FLC, ITC, POS, and VOR were used as reference drugs for comparison. The MIC values presented for these five control drugs were either tested herein or correspond to our previously published data^5, 16 as indicated in Table 1.
(§6) Antifungal activity in the absence or presence of serum. The antifungal activity of the newly prepared alkylated piperazine/morpholine-azole hybrids 16-28, of intermediate 14 that we used to verify that only final compounds exert antifungal activity, as well as that of alkylated piperazine/morpholine derivatives 1-10 were first evaluated against a panel of seven C. albicans (ATCC 10231 (A), ATCC 64124(R) (B), ATCC MYA-2876(S) (C), ATCC 90819(R) (D), ATCC MYA-2310(S) (E), ATCC MYA-1237(R) (F), and ATCC MYA-1003(R) (G)), three non-albicans Candida (C. glabrata ATCC 2001 (H), C. krusei ATCC 6258 (I), and C. parapsilosis ATCC 22019 (J)), and three Aspergillus (A. flavus ATCC MYA-3631 (K), A. nidulans ATCC 38163 (L), and A. terreus ATCC MYA-3633 (M)) strains using a concentration range of 0.03-31.3 μg/mL (Table 2).
as §3, with “Commercially available antifungal agents such as AmB, CAS, FLC, and VOR were used as positive controls for comparison. […] It” for “It”
(§7) We used the commercially available antifungal agents such as AmB, caspofungin (CAS), FLC, and VOR as positive controls for comparison. For derivatives 5-16 as well as the reference drugs AmB and CAS, we reported MIC-0 values, which correspond to no visible growth. […] In this manuscript, we performed all activity comparisons by using the MIC values reported in μg/mL (Note: the corresponding MIC values are also provided in μM into parentheses in Tables 1, 2, S1, and S2).

[2] = test system: C. albicans ATCC MYA-2876(S); assay: MIC determination, strain C; assay type: cell-based, Candida albicans; details: strain C, AmB; for MIC: Candida albicans
Experimental: as §5, §6
as §3, with “Commercially available antifungal agents such as AmB, CAS, FLC, and VOR were used as positive controls for comparison. […] It” for “It”
as §7

[3] = test system: C. albicans ATCC 90819(R); assay: MIC determination, strain D; assay type: cell-based, Candida albicans; details: strain D, AmB; for MIC: Candida albicans, ATCC90819
Experimental: as §5, §6
as §3, with “Commercially available antifungal agents such as AmB, CAS, FLC, and VOR were used as positive controls for comparison. […] It” for “It”
as §7

[4] = test system: C. albicans ATCC MYA-2310(S); assay: MIC determination, strain E; assay type: cell-based, Candida albicans; details: strain E, AmB; for MIC: Candida albicans
Experimental: as §5, §6
as §3, with “Commercially available antifungal agents such as AmB, CAS, FLC, and VOR were used as positive controls for comparison. […] It” for “It”
as §7

[5] = test system: C. albicans ATCC MYA-1237(R); assay: MIC determination, strain F; assay type: cell-based, Candida albicans; details: strain F, AmB; for MIC: Candida albicans
Text: as §1, §2, §3, §4

[6] = test system: C. albicans ATCC MYA-1003(R); assay: MIC determination, strain G; assay type: cell-based, Candida albicans; details: strain G, AmB; for MIC: Candida albicans
Text: as §1, §2, §3, §4

[7] = test system: Candida glabrata ATCC 2001; assay: MIC determination, strain H; assay type: cell-based; details: strain H, AmB; for MIC: Nakaseomyces glabratus, ATCC2001
Experimental: as §5, §6
as §3, with “Commercially available antifungal agents such as AmB, CAS, FLC, and VOR were used as positive controls for comparison. […] It” for “It”
as §7

Candida krusei ATCC 6258 = assay: MIC determination, strain I; assay type: cell-based; details: strain I, AmB; for MIC: Pichia kudriavzevii, ATCC6258
Experimental: as §5, §6
as §3, with “Commercially available antifungal agents such as AmB, CAS, FLC, and VOR were used as positive controls for comparison. […] It” for “It”
as §7

[8] = test system: Aspergillus terreus ATCC MYA-3633; assay: MIC determination, strain M; assay type: cell-based; details: for MIC: Aspergillus terreus
Text: as §1, §2, §3, §4

BEAS-2B cell line = assay: Cytotoxicity assay, BEAS-2B; details: Ex.1 series, 15.6 μg/mL
Experimental: The positive control consisted of cells treated with Triton X-100® (TX, 12.5% v/v). The negative control consisted of cells treated with DMSO (no drug).
The positive control consisted of cells treated with Triton X-100® (TX, 20% v/v, pink). The negative control consisted of cells treated with DMSO (no drug, green). The experiments were performed in duplicate.
In vitro cytotoxicity assay.

[9] = test system: Candida parapsilosis ATCC 22019; assay: MIC determination, strain J; assay type: cell-based; details: Lodderomyces parapsilosis, ATCC22019, Table 2, strain J, Ex.2 compounds, AmB, CAS
Experimental: as §5, §6
as §3, with “Commercially available antifungal agents such as AmB, CAS, FLC, and VOR were used as positive controls for comparison. […] It” for “It”
as §7

[10] = test system: Aspergillus flavus ATCC MYA-3631; assay: MIC determination, strain K; assay type: cell-based; details: Table 2, all compounds and controls
Text: as §1, §2, §3, §4

[11] = test system: Aspergillus nidulans ATCC 38163; assay: MIC determination, strain L; assay type: cell-based; details: ATCC38163, Table 2, strain L, all compounds and controls
Text: as §1, §2, §3, §4

[12] = Table 2, all compounds and controls
[13] = Table 2, Ex.2 compounds, CAS, read-out: MIC (MIC-0)
[14] = Table 2, Ex.2 compounds, CAS, read-out: MIC (MIC-0), in parentheses
[15] = read-out: MIC (MIC-0), in parentheses

Compound: C[C@@H]1[C@H](O)[C@@H](C)/C=C/C=C/C=C/C=C/C=C/C=C/C=C/[C@H](O[C@@H]2O[C@H](C)[C@@H](O)[C@H](N)[C@@H]2O)C[C@@H]2O[C@](O)(C[C@@H](O)C[C@@H](O)[C@H](O)CC[C@@H](O)C[C@@H](O)CC(=O)O[C@H]1C)C[C@H](O)[C@H]2C(=O)O [AmB, amphotericin B]
MIC (MIC-0) ([1]; Table 1, strain A, Ex.1 compounds 1-9, 24-41 and AmB, complete growth inhibition): 3.9 µg/mL (≈ 4.22 µM)
MIC (MIC-0) ([1]; Table 2, strain A, Ex.2 compounds 1-10, 14, 16-28, AmB, CAS, no visible growth): 3.9 µg/mL (≈ 4.22 µM)
MIC (MIC-0), in parentheses ([1]; Table 2, strain A, Ex.2 compounds, AmB, CAS): (4.2) micromolar
MIC, Candida albicans ATCC 10231 (A) (+10% FBS) ([1]; Table 3, Ex.2 compounds, +10% FBS): 7.8 µg/mL (≈ 8.44 µM)
MIC, Candida albicans ATCC 10231 (A) (no FBS) ([1]; Table 3, Ex.2 compounds, no FBS): 3.9 µg/mL (≈ 4.22 µM)
MIC (MIC-0) (C. albicans ATCC 64124; Table 1): 3.9 µg/mL (≈ 4.22 µM)
MIC (MIC-0) (C. albicans ATCC 64124; Table 2, Ex.2 compounds, CAS): 3.9 µg/mL (≈ 4.22 µM)
MIC (MIC-0), in parentheses (C. albicans ATCC 64124; Table 2, Ex.2 compounds, CAS): (4.2) micromolar
MIC (MIC-0) ([2]; Table 1): 1.95 µg/mL (≈ 2.11 µM)
MIC (MIC-0) ([2]; Table 2, Ex.2 compounds, CAS): 1.95 µg/mL (≈ 2.11 µM)
MIC (MIC-0), in parentheses ([2]; Table 2, Ex.2 compounds, CAS): (2.1) micromolar
MIC (MIC-0) ([3]; Table 1): 0.975 µg/mL (≈ 1.06 µM)
MIC (MIC-0) ([3]; Table 2, Ex.2 compounds, CAS): 0.975 µg/mL (≈ 1.06 µM)
MIC (MIC-0), in parentheses ([3]; Table 2, Ex.2 compounds, CAS): (1.1) micromolar
MIC (MIC-0) ([4]; Table 1): 1.95 µg/mL (≈ 2.11 µM)
MIC (MIC-0) ([4]; Table 2, Ex.2 compounds, CAS): 1.95 µg/mL (≈ 2.11 µM)
MIC (MIC-0), in parentheses ([4]; Table 2, Ex.2 compounds, CAS): (2.1) micromolar
MIC (MIC-0) ([5]; Table 1): 3.9 µg/mL (≈ 4.22 µM)
MIC (MIC-0) ([5]; Table 2, Ex.2 compounds, CAS): 3.9 µg/mL (≈ 4.22 µM)
MIC (MIC-0), in parentheses ([5]; Table 2, Ex.2 compounds, CAS): (4.2) micromolar
MIC (MIC-0) ([6]; Table 1): 3.9 µg/mL (≈ 4.22 µM)
MIC (MIC-0) ([6]; Table 2, Ex.2 compounds, CAS): 3.9 µg/mL (≈ 4.22 µM)
MIC (MIC-0), in parentheses ([6]; Table 2, Ex.2 compounds, CAS): (4.2) micromolar
MIC (MIC-0) ([7]; Table 1): 1.95 µg/mL (≈ 2.11 µM)
MIC (MIC-0) ([7]; Table 2, Ex.2 compounds, CAS): 1.95 µg/mL (≈ 2.11 µM)
MIC (MIC-0), in parentheses ([7]; Table 2, Ex.2 compounds, CAS): (2.1) micromolar
MIC (MIC-0) (Candida krusei ATCC 6258; Table 1): 3.9 µg/mL (≈ 4.22 µM)
MIC (MIC-0) (Candida krusei ATCC 6258; Table 2, Ex.2 compounds, CAS): 3.9 µg/mL (≈ 4.22 µM)
MIC (MIC-0), in parentheses (Candida krusei ATCC 6258; Table 2, Ex.2 compounds, CAS): (4.2) micromolar
MIC (MIC-0) ([8]; Table 1, Ex.1 compounds and AmB, complete growth inhibition): 3.9 µg/mL (≈ 4.22 µM)
MIC (MIC-0) [8, 12]: 3.9 µg/mL (≈ 4.22 µM)
MIC (MIC-0), in parentheses [8, 12]: (4.2) micromolar
cell survival (BEAS-2B cell line): 30%

MIC ([1]; Table 2, strain A, Ex.2 compounds 1-10, 14, 16-28, AmB, CAS, no visible growth, read-out: MIC (MIC-0)): 0.975 µg/mL
MIC ([1]; Table 2, strain A, Ex.2 compounds, AmB, CAS, read-out: MIC (MIC-0), in parentheses): 0.8 µM
MIC (C. albicans ATCC 64124; [13]): 0.24 µg/mL
MIC (C. albicans ATCC 64124; [14]): 0.2 µM
MIC [2, 13]: 0.06 µg/mL
MIC [2, 14]: 0.05 µM
MIC [3, 13]: 0.12 µg/mL
MIC [3, 14]: 0.1 µM
MIC [4, 13]: 0.12 µg/mL
MIC [4, 14]: 0.1 µM
MIC [5, 13]: 0.24 µg/mL
MIC [5, 14]: 0.2 µM
MIC [6, 13]: 0.48 µg/mL
MIC [6, 14]: 0.4 µM
MIC [7, 13]: 0.06 µg/mL
MIC [7, 14]: 0.05 µM
MIC (Candida krusei ATCC 6258; [13]): 0.48 µg/mL
MIC (Candida krusei ATCC 6258; [14]): 0.4 µM
MIC ([9]; read-out: MIC (MIC-0)): 1.95 µg/mL
MIC [9, 15]: 1.6 µM
MIC ([10]; read-out: MIC (MIC-0)): > 31.3 µg/mL
MIC [10, 15]: > 25.8 µM
MIC ([11]; read-out: MIC (MIC-0)): > 31.3 µg/mL
MIC [11, 15]: > 25.8 µM
MIC ([8]; Table 2, all compounds and controls, read-out: MIC (MIC-0)): > 31.3 µg/mL
MIC ([8]; Table 2, all compounds and controls, read-out: MIC (MIC-0), in parentheses): > 25.8 µM
Compound: CC[C@H](C)C[C@H](C)CCCCCCCCC(=O)N[C@H]1C[C@@H](O)[C@@H](NCCN)NC(=O)[C@@H]2[C@@H](O)CCN2C(=O)[C@H]([C@H](O)CCN)NC(=O)[C@H]([C@H](O)[C@@H](O)c2ccc(O)cc2)NC(=O)[C@@H]2C[C@@H](O)CN2C(=O)[C@H]([C@@H](C)O)NC1=O [CAS, caspofungin]
